In brackets after ≈: the same amount, converted by molar mass.
Tests used:
[1] = Comparative test of solubility in water (Britton-Robinson buffer); format: physicochemical; conditions: aqueous buffer, Britton-Robinson buffer (ion strength of 0.3) at 25° C.
Procedure: 3-(3-(4-(Pyridin-2-ylmethoxy)-benzyl)-isoxazol-5-yl)-pyridin-2-ylamine described in Reference Example 1, which is the parent compound, and the compound of Example 1 were compared for solubility in a Britton-Robinson buffer (ion strength of 0.3) at 25° C.

[2] = Conversion into parent compound (active form) in human liver S9 fraction; format: in vitro ADME; conditions: human liver S9 reaction solution, 0.2 mg/mL protein, 10 μmol/L compound, pH 7.4, 37° C., 0, 30, 60 minutes, LC-MS (FIG. 1)
Procedure: (§1) A suspension (pH of 7.4) containing human and monkey liver S9 fractions (with a protein concentration of 0.22 mg/mL), 0.5 mmol/L magnesium chloride, and 100 mmol/L tris-HCl was prepared over ice (various reaction solutions A). 30 μL of a 100 μmol/mL aqueous solution of the compound according to the present invention (the compound of Example 1) was added to the various reaction solutions A (for a final compound concentration of 10 μmol/L) to obtain various liver S9 reaction solutions (with a final protein concentration of 0.2 mg/mL), and these were stored on ice until (2) was carried out. A control sample was prepared (reaction buffer solution) by adding 30 μL of a […] aqueous solution of the compound according to the present invention (the compound of Example 1) to 0.27 mL of a buffer (pH of 7.4) containing 0.5 mmol/L magnesium chloride and 100 mmol/L tris-HCl. […]
(§2) (3) The Concentrations of the Compound According to the Present Invention (the Compound of Example 1) and the Parent Compound (the Compound of Reference Example 1) in the Reaction Solution were Quantified by LC-MS.
(§3) The concentrations of the compound according to the present invention (the compound of Example 1) and the parent compound (the compound of Reference Example 1) in the reaction solution were measured by the method described in 2. above. […]

[3] = Conversion into parent compound (active form) in monkey liver S9 fraction; format: in vitro ADME; conditions: monkey liver S9 reaction solution, 0.2 mg/mL protein, 10 μmol/L compound, pH 7.4, 37° C., 0, 30, 60 minutes, LC-MS (FIG. 2)
Procedure: as §1, §2, §3

[4] = test system: C. albicans CAF2-1 strain; test: Anti-Candida activity (MIC measurement); format: cell-based; conditions: CAF21STRAIN, RPMI1640 medium, 42-48 hours at 35° C., visual inspection, read-out: Anti-Candida (minimum inhibitory concentration, MIC)
Procedure: (§4) For the C. albicans CAF2-1 strain, a fungal suspension from a standing culture for 48 hours at 30° C. in a Sabouraud dextrose liquid culture medium (SDB) was diluted with RPMI1640 medium to adjust a fungal suspension of 1.2×10^3 cells/mL. For the A. fumigatus Tsukuba strain, −80° C. stored strain was diluted with RPMI1640 medium to adjust to a fungal suspension of 4.5×10^3 cells/mL.
(§5) Using a U-bottomed 96 well plate, 8 samples/plate (A to H) of sample dilution solutions were prepared. On the 2nd to 12th rows were dispensed 10 μl of dimethyl sulfoxide solution. Weighted sample was dissolved in dimethyl sulfoxide to prepare a 2.5 mg/mL solution, 20 μl of this solution was added to the first row of the prepared plate, and 12 steps of two-folded step dilutions (10 μl of solution+10 μl of dimethyl sulfoxide solution) were performed on the plate. This sample dilution solution was dispensed in the amount of 1 μl to a flat-bottomed 96 well plate for MIC measurement to prepare a sample dilution plate.
(§6) The fungal suspension prepared in (1) was used in the amount of […] to inoculate the flat-bottomed 96 well plate containing 1 μL/well of the test compound dilution prepared in (2), and a standing culture was carried out aerobically for 42-48 hours at 35° C.

[5] = test system: A. fumigatus Tsukuba strain; test: Anti-Aspergillus activity (MIC measurement); format: cell-based; conditions: RPMI1640 medium, 42-48 hours at 35° C., visual inspection, read-out: Anti-Aspergillus activity (minimum inhibitory concentration, MIC)
Procedure: as §4, §5, §6

| SMILES | solubility ([1]; pH 3) | solubility ([1]; pH 7) | solubility ([1]; pH 9) | Conversion into the parent compound (compound of Reference Example 1) [2] | Conversion into the parent compound (compound of Reference Example 1) [3] | MIC [4] | MIC [5] |
| --- | --- | --- | --- | --- | --- | --- | --- |
| Nc1ncccc1-c1cc(Cc2ccc(OCc3cccc[n+]3COP(=O)([O-])O)cc2)no1 [Example 1, 2-((4-((5-(2-Amino-3-pyridinyl)-3-isoxazolyl)methyl)phenoxy)methyl)-1-((phosphonooxy)methyl)pyridinium mono-trifluoroacetate] | > 70000 µg/mL | > 70000 µg/mL | > 70000 µg/mL | converted into the parent compound | converted into the parent compound | – | – |
| Nc1ncccc1-c1cc(Cc2ccc(OCc3ccccn3)cc2)no1 [Reference Example 1, 3-(3-(4-(Pyridin-2-ylmethoxy)-benzyl)-isoxazol-5-yl)-pyridin-2-ylamine] | 400 µg/mL (≈ 1120 µM) | < 100 µg/mL | < 100 µg/mL | – | – | 0.2 µg/mL (≈ 0.558 µM) | 0.39 µg/mL (≈ 1.09 µM) |

— patent US20100331282A1, “PYRIDINE DERIVATIVE CONTAINING ((PHOSPHONOOXY)METHYL)PYRIDINIUM RING, AND ANTIFUNGAL AGENT CONTAINING THESE DERIVATIVE” (priority 2009, published 2010)
